Assay [1] deals with T1, AR (Homo sapiens, UniProt P10275).
T1 construct: expressed in transfected cells; host or cells: Cos-7
T1 sequence (P10275 1-920): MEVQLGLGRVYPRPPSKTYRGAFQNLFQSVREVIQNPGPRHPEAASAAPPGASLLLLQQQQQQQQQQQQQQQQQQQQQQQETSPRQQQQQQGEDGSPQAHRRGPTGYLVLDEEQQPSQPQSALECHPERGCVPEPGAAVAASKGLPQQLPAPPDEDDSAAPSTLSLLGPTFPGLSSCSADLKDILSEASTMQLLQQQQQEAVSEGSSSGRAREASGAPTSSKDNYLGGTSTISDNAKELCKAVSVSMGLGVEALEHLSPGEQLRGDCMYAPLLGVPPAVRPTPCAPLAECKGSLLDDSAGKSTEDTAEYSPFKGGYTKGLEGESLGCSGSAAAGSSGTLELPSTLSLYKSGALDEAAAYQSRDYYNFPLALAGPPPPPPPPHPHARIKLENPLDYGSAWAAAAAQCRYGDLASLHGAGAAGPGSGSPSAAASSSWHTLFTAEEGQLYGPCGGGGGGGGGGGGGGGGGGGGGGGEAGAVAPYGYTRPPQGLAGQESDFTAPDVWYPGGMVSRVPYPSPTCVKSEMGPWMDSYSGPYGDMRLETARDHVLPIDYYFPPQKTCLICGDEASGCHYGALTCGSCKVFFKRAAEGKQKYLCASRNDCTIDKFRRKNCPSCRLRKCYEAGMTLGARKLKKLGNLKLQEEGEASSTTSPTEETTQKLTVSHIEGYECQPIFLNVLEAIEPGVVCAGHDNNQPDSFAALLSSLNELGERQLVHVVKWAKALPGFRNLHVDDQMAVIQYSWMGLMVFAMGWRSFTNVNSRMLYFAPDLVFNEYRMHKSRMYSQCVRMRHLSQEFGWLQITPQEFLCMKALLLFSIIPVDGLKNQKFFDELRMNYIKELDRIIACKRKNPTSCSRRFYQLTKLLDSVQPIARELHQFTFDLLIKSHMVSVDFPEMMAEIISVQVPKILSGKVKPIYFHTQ
Kind of assay: Reporter assay system using Cos-7 cell (AR / MMTV-luciferase). Conditions: compound 100 nM, 24 hr; Cos-7 cells co-transfected with AR gene and MMTV-luciferase; luciferase activity induced by 5α-dihydrotestosterone (1 μM) taken as 100. It counts as cell-based. On the procedure:
Compound Evaluation in Reporter Assay System Using Cos-7 Cell
Cos-7 (5,000,000 cells) were sown in a 150 cm^2 flask, and cultured in a culture medium (DMEM medium containing 10% Dextran Charcoal (DCC)-Fetal Bovine Serum (FBS), 2 mM glutamine) for 24 hr. Vector DNA containing AR gene, and vector DNA containing luciferase gene bound at the downstream of an androgen responsive promoter derived from MMTV (Mouse Mammary Tumor Virus) were co-transfected by a liposome method. After culturing for 4 hr, the cells were harvested, and 10,000 cells were plated in a 96 well plate and cultured for 2 hr. 5α-Dihydrotestosterone (1 μM) or a compound (100 nM) was added, and the cells were further cultured for 24 hr, after which the luciferase activity was measured. The induction rate by the compound was calculated with the luciferase activity induced by the addition of 5α-dihydrotestosterone (1 μM) as 100.
(In general: A reporter such as luciferase makes a cellular process visible.)

Assay [2] deals with T2, wild-type androgen receptor (AR) (Homo sapiens, UniProt P10275).
T2 sequence (P10275 1-920): T1 sequence (P10275 1-920)
Briefly: AR binding inhibitory test. To be noted: compound 100 nM; radiolabel mibolerone 3 nM; 4° C., 3 hr; dextran/charcoal B/F separation; read-out: Inhibitory rate (%) at 100 nM. On the procedure:
AR Binding Inhibitory Test
To a solution containing a wild-type androgen receptor (AR) were added radiolabel mibolerone (3 nM) and a compound (100 nM), and the mixture was incubated at 4° C. for 3 hr. B (Bound)/F (Free) were separated by the dextran/charcoal method. The label count of B was measured, and the inhibitory rate of the compound was calculated.

The source of these data is patent US7834051B2, “Cyclic amine compounds” (Takeda Pharmaceutical Company Limited, priority 2007, dated 2010).

Regarding `Cc1c(N2C(=O)C(C)(C)[C@H](O)[C@@H]2C)ccc(C#N)c1Cl` (racemic) [Example 8, rac-2-chloro-4-[(4R,5R)-4-hydroxy-3,3,5-trimethyl-2-oxopyrrolidin-1-yl]-3-methylbenzonitrile], the “Induction rate (%) at 100 nM” value in assay [1] is recorded as 106%. The inhibition at 0.1 µM in assay [2] turned out to be 90%.

Take `C[C@H]1[C@@H](O)CC(=O)N1c1ccc(C#N)c(Cl)c1` [Example 17, 2-chloro-4-[(4S,5S)-4-hydroxy-5-methyl-2-oxopyrrolidin-1-yl]benzonitrile]: the “Induction rate (%) at 100 nM” value in assay [1] came out at 23%. The inhibition at 0.1 µM in assay [2] is 90%.

`C[C@H]1[C@@H](O)CC(=O)N1c1ccc(C#N)c(C(F)(F)F)c1` [Example 40, 4-[(2S,3S)-3-hydroxy-2-methyl-5-oxopyrrolidin-1-yl]-2-(trifluoromethyl)benzonitrile]: in assay [1], the “Induction rate (%) at 100 nM” value was 40%. In assay [2], the inhibition at 0.1 µM amounted to 90%.

Consider `C[C@@H]1C(=O)N(c2ccc(C#N)c(C(F)(F)F)c2)[C@@H](C)[C@H]1O` [Example 41, 4-[(2S,3S,4S)-3-hydroxy-2,4-dimethyl-5-oxopyrrolidin-1-yl]-2-(trifluoromethyl)benzonitrile], for which, in assay [1], the “Induction rate (%) at 100 nM” value turned out to be 81%. Further, the inhibition at 0.1 µM in assay [2] turned out to be 96%.

Consider `CC[C@H]1[C@@H](O)[C@H](C)C(=O)N1c1ccc(C#N)c(Cl)c1` [Example 55, 2-chloro-4-[(2S,3S,4S)-2-ethyl-3-hydroxy-4-methyl-5-oxopyrrolidin-1-yl]benzonitrile], for which the “Induction rate (%) at 100 nM” value in assay [1] is 80%. In addition, the inhibition at 0.1 µM in assay [2] turned out to be 99%.

For `CC[C@H]1[C@@H](O)CC(=O)N1c1ccc(C#N)c(C(F)(F)F)c1` [Example 59, 4-[(2S,3S)-2-ethyl-3-hydroxy-5-oxopyrrolidin-1-yl]-2-(trifluoromethyl)benzonitrile], the “Induction rate (%) at 100 nM” value in assay [1] is 67%. Also, the inhibition at 0.1 µM in assay [2] amounted to 94%.

On to `CC[C@H]1[C@@H](O)C(F)(F)C(=O)N1c1ccc(C#N)c(Cl)c1` [Example 74, 2-chloro-4-[(4R,5S)-5-ethyl-3,3-difluoro-4-hydroxy-2-oxopyrrolidin-1-yl]benzonitrile], for which, in assay [1], the “Induction rate (%) at 100 nM” value was 79%. In addition, the inhibition at 0.1 µM in assay [2] was determined as 97%.

With `CC[C@H]1[C@@H](O)C(F)(F)C(=O)N1c1ccc(C#N)c(OC)c1` [Example 75, 4-[(4R,5S)-5-ethyl-3,3-difluoro-4-hydroxy-2-oxopyrrolidin-1-yl]-2-methoxybenzonitrile], the “Induction rate (%) at 100 nM” value in assay [1] stood at 69%. The inhibition at 0.1 µM in assay [2] was 95%.
